Where a name gives a salt, the structure may show the parent alone. Read-outs that look alike come from different tables or passages of the source.
Columns and labels:
SHIVSF162P3 [1] = assay: SHIV plasma viral load (real-time PCR) in breakthrough infections; assay type: in vivo, rhesus macaques
Method: Plasma RNA is quantified using a real-time PCR assay as previously described.^5 This assay has a sensitivity of detection of 50 RNA copies/ml or 10 copies of a pVp1 plasmid carrying the SIVmac239 RT gene. HIV-1 RNA is extracted from 1 mL of plasma using the NucliSens extraction method (bioMerieux). A known amount of virus particles (3×10^5) from an HIV-1 CM240 virus stock is added to each sample prior to extraction to control for the efficiency of extraction. Reverse transcription is performed using 10 microliters (μl) of extracted RNA and the 2-step TaqMan Gold reverse-transcriptase (RT)—PCR kit (Applied Biosystems) according to the manufacturer's instructions. PCR reactions are performed as described using an ABI 7000 […] (Applied Biosystems). Virus loads are calculated from a standard curve generated with known amount of virus particles. All primers and probes used for SIVmac239 and HIV-1 CM240 have been reported elsewhere.^5 HIV-1 CM240 is obtained from the National Institutes of Health (NIH) AIDS Research and Reference Reagent Program.
Since the dynamics of breakthrough infections that occur during inventive prophylaxis and drug resistance emergence are unknown, the 6 infected animals from Groups 1 and 2 are followed under continued drug treatment. FIG. 3 compares the virus load kinetics in the 6 breakthrough infections with those in 12 untreated macaques that had sufficient follow-up samples. The mean peak viremia in the 6 treated macaques was 4.9±0.5 log10 RNA copies/ml, 2.0 log10 lower than in untreated controls (6.9±0.3 log10 RNA). […] In contrast, all 12 untreated macaques had detectable virus loads during a median follow-up period of 7 weeks (range=5-36 weeks). The arrow in FIG. 4 denotes the first detectable antibody response. Grey circles indicate detectable M184V/I mutation; wild type sequences are shown in black full circles. Open circles are provided for data points not genotyped.

in vivo = details: rhesus monkey
Method: A dose of 22 mg/kg of tenofovir disoproxil fumarate (TDF) is given orally and 20 mg/kg of emtricitabine (FTC) given orally or subcutaneously to one group of adult male rhesus macaques.

[2] = human, in vivo, cited from earlier work
SHIVSF162P3 [3] = assay: Repeated weekly rectal SHIV162p3 exposures under once daily prophylaxis (survival curves); assay type: in vivo, rhesus macaques
Method: A chimeric envelope SHIVSF162P3 isolate is used to inoculate the macaques. SHIVSF162P3 is a construct that contains the tat, rev, and env coding regions of HIV-1SF162 in a background of SIVmac239. This isolate was obtained from the National Institutes of Health (NIH) AIDS Research and Reference Reagent Program.^7,8 Virus exposures are performed 2 hours after drug treatment, and involved non-traumatic inoculation of 1 mL of SHIVSF162P3 (10 TCID50 or […]) into the rectal vault via a sterile gastric feeding tube.^9 Anesthetized macaques remained recumbent for at least 15 min after each intra-rectal inoculation.
The exact log-rank test is used for a discrete-time survival analysis of the treatment and control groups, with use of the number of inoculations as the time variable. The Cox proportional hazards model is used to estimate the relative hazard ratio (HR). Percent protection is calculated from the HR value using the formula: (1-1/HR)×100. All statistical analyses for calculation of the efficacy of the different interventions are performed using SAS software (version 9.1; SAS Institute) and StatXact software (version 6.3; Cytel).
Macaques are exposed rectally once weekly for up to 14 weeks to SHIV162p3 which contains an R5 tropic HIV-1 envelope that resembles naturally transmitted viruses. The SHIV162p3 challenge dose is 10 TCID50 or 7.6×10^5 RNA copies which is similar to HIV-1 RNA levels in semen during acute infection in humans.^11 Virus exposures are terminated when a macaque became infected. […] Three prophylactic drug treatments of increasing drug potency are each given once daily to a group of six macaques. Animals in Group 1 were treated subcutaneously with 20 mg/kg of FTC alone. Animals in Group 2 received orally a combination of FTC (20 mg/kg) and TDF (22 mg/kg). […] The rate of infection in each group is compared with that seen in 18 untreated control macaques (9 real time and 9 historical controls).
All treated macaques received the corresponding drugs 7 to 9 days prior to the first virus inoculation to achieve steady-state plasma levels. Treated animals that remained uninfected during the 14 challenges received 28 days of post-exposure prophylaxis after the last challenge. Protection was defined as absence of persistent viremia and seroconversion.
Data with TDF (20 mg/kg) is also provided for comparison.

SHIV = details: oral daily dosing, dose equivalent to that used in humans; cited from earlier work
[4] = test system: simian immunodeficiency virus (SIV); details: monkey models challenged with SIV; cited from earlier work

Nc1nc(=O)n([C@@H]2CS[C@H](CO)O2)cc1F [FTC, emtricitabine]
time after the peak in viremia to undetectable virus loads (SHIVSF162P3 [1]; animal AG-07): 7 weeks
time after the peak in viremia to undetectable virus loads (SHIVSF162P3 [1]; animal AG-80): 3 weeks
time after the peak in viremia to undetectable virus loads (SHIVSF162P3 [1]; animal AH-04): 4 weeks
viremia during follow-up (SHIVSF162P3 [1]; for up to 20 weeks, animals AG-80, AH-04, AG-07, AG-81): consistently low or undetectable
AUC (in vivo; male, 20 mg/kg): 11000 ng·h/mL
plasma FTC levels after subcutaneous administration (in vivo): comparable to those achieved during oral administration
AUC ([2]; po, 200 mg): 10000 ± 3120 ng·h/mL
exposure with first detectable viral RNA (SHIVSF162P3 [3]; animal AG-07): 13
exposure with first detectable viral RNA (SHIVSF162P3 [3]; animal AG-46): 10
exposure with first detectable viral RNA (SHIVSF162P3 [3]; animal AG-80): 5
exposure with first detectable viral RNA (SHIVSF162P3 [3]; animal AH-04): 12
Cox proportional hazard ratio [HR] (fold reduction of infection compared to controls) (SHIVSF162P3 [3]; compared to 18 untreated controls): 3.8
infection / survival analysis compared to untreated controls (SHIVSF162P3 [3]; compared to untreated controls): statistically significant difference
macaques that became infected (SHIVSF162P3 [3]; of 6 macaques per group, once daily treatment, up to 14 rectal exposures): 4
macaques remaining uninfected / protected after 14 exposures (SHIVSF162P3 [3]; of 6 macaques per group, once daily treatment, weekly rectal SHIV162p3): 2
protection compared with TDF alone (SHIVSF162P3 [3]; versus 4 animals previously receiving TDF, difference not statistically significant (p=0.5)): higher than that previously seen in 4 animals receiving TDF

CC(C)OC(=O)OCOP(=O)(CO[C@H](C)Cn1cnc2c(N)ncnc21)OCOC(=O)OC(C)C [TDF, tenofovir disoproxil fumarate]
area-under the plasma concentration-time curve over a 24 h interval (AUC) (in vivo; male, po, 22 mg/kg): 4490 ng·h/mL
AUC ([2]; 300 mg): 5020 ng·h/mL

C[C@H](Cn1cnc2c(N)ncnc21)OCP(=O)(O)O [tenofovir]
protection against rectal SHIV transmission (SHIV): partially protective
prophylactic activity [4]: Prophylactic activity has been demonstrated

— patent US10335423B2, “Inhibition of HIV infection through chemoprophylaxis” (THE UNITED STATES OF AMERICA, as represented by the …, priority 2006, dated 2019)
